{"source": "paper PMC8859858", "about": "(Nanoscale, 2019)", "target": "AdhD (AdhD-SP) (Pyrococcus furiosus, UniProt Q8TZM9)", "test": "NADH disappearance at […] nm, Michaelis-Menten fit", "assay_type": "biochemical", "conditions": "free enzyme; NADH (A340 ~1.8); 100 mM sodium phosphate pH 6.2; 50 °C", "data": [{"compound": "CC(=O)C(C)O", "note": "(stereo not shown) [acetoin]", "values": [{"measurement": "KM", "value": "The dependence of the reaction rate on acetoin followed Michaelis-Menten kinetics."}]}]}
